Data on 48 compounds can be found in US8916565B2, “Pyrrolopyrazine-spirocyclic piperidine amides as modulators of ion channels” (priority 2011, dated 2014).

Each structure is given as a SMILES string.

For the test, the target named is human NaV subtype, like NaV 1.7 (Homo sapiens, UniProt Q15858). The test is described as follows: E-VIPR optical membrane potential assay with electrical stimulation. Format: cell-based. The settings on record: active against one or more sodium channels; Table 3 does not name the assay or NaV subtype; read-out: Binned Activity Data (IC50). From the text:
Assays for Detecting and Measuring NaV Inhibition Properties of Compound E-VIPR Optical Membrane Potential Assay Method with Electrical Stimulation
Sodium channels are voltage-dependent proteins that can be activated by inducing membrane voltage changes by applying electric fields. The electrical stimulation instrument and methods of use are described in Ion Channel Assay Methods PCT/US01/21652, herein incorporated by reference and are referred to as E-VIPR. The instrument comprises a microtiter plate handler, an optical system for exciting the coumarin dye while simultaneously recording the coumarin and oxonol emissions, a waveform generator, a current- or voltage-controlled amplifier, and a device for inserting electrodes in well. Under integrated computer control, this instrument passes user-programmed electrical stimulus protocols to cells within the wells of the microtiter plate.
24 hours before the assay on E-VIPR, HEK cells expressing human NaV subtype, like NaV 1.7, are seeded in 384-well poly-lysine coated plates at 15,000-20,000 cells per well. Other subtypes are performed in an analogous mode in a cell line expressing the NaV of interest. HEK cells are grown in media (exact composition is specific to each cell type and NaV subtype) supplemented with 10% FBS (Fetal Bovine Serum, qualified; GibcoBRL #16140-071) and 1% Pen-Strep (Penicillin-Streptomycin; GibcoBRL #15140-122). Cells are grown in vented cap flasks, in 90% humidity and 10% CO2, to 100% confluence. They are usually split by trypsinization 1:10 or 1:20, depending on scheduling needs, and grown for 2-3 days before the next split.
Bath 1 buffer. Glucose 10 mM (1.8 g/L), Magnesium Chloride (Anhydrous), 1 mM (0.095 g/L), Calcium Chloride, 2 mM (0.222 g/L), HEPES 10 mM (2.38 g/L), Potassium Chloride, 4.5 mM (0.335 g/L), Sodium Chloride 160 mM (9.35 g/L).
Hexyl Dye Solution: Bath 1 Buffer+0.5% β-cyclodextrin (make this prior to use, Sigma #C4767), 8 μM CC2-DMPE+2.5 μM DiSBAC6(3). To make the solution Add volume of 10% Pluronic F127 stock equal to volumes of CC2-DMPE+DiSBAC6(3). The order of preparation is first mix Pluronic and CC2-DMPE, then add DiSBAC6(3) while vortexing, then add Bath 1+β-Cyclodextrin.
1) Pre-spot compounds (in neat DMSO) into compound plates. Vehicle control (neat DMSO), the positive control (20 mM DMSO stock tetracaine, 125 μM final in assay) and test compounds are added to each well at 160× desired final concentration in neat DMSO. Final compound plate volume will be 80 μL (80-fold intermediate dilution from 1 μL DMSO spot; 160-fold final dilution after transfer to cell plate). Final DMSO concentration for all wells in assay is 0.625%.
2) Prepare Hexyl Dye Solution.
3) Prepare cell plates. On the day of the assay, medium is aspirated and cells are washed three times with 100 μL of Bath 1 Solution, maintaining 25 μL residual volume in each well.
4) Dispense 25 μL per well of Hexyl Dye Solution into cell plates. Incubate for 20-35 minutes at room temp or ambient conditions.
5) Dispense 80 μL per well of Bath 1 into compound plates. Acid Yellow-17 (1 mM) is added and Potassium Chloride can be altered from 4.5 to 20 mM depending on the NaV subtype and assay sensitivity.
6) Wash cell plates three times with 100 μL per well of Bath1, leaving 25 μL of residual volume. Then transfer 25 uL per well from Compound Plates to Cell Plates. Incubate for 20-35 minutes at room temp/ambient condition
7) Read Plate on E-VIPR. Use the current-controlled amplifier to deliver stimulation wave pulses for typically 9 seconds and a scan rate of 400 Hz. A pre-stimulus recording is performed for 0.5 seconds to obtain the un-stimulated intensities baseline. The stimulatory waveform is applied for 9 seconds followed by 0.5 seconds of post-stimulation recording to examine the relaxation to the resting state.

human NaV subtype, like NaV 1.7, sequence (Q15858 whole entry): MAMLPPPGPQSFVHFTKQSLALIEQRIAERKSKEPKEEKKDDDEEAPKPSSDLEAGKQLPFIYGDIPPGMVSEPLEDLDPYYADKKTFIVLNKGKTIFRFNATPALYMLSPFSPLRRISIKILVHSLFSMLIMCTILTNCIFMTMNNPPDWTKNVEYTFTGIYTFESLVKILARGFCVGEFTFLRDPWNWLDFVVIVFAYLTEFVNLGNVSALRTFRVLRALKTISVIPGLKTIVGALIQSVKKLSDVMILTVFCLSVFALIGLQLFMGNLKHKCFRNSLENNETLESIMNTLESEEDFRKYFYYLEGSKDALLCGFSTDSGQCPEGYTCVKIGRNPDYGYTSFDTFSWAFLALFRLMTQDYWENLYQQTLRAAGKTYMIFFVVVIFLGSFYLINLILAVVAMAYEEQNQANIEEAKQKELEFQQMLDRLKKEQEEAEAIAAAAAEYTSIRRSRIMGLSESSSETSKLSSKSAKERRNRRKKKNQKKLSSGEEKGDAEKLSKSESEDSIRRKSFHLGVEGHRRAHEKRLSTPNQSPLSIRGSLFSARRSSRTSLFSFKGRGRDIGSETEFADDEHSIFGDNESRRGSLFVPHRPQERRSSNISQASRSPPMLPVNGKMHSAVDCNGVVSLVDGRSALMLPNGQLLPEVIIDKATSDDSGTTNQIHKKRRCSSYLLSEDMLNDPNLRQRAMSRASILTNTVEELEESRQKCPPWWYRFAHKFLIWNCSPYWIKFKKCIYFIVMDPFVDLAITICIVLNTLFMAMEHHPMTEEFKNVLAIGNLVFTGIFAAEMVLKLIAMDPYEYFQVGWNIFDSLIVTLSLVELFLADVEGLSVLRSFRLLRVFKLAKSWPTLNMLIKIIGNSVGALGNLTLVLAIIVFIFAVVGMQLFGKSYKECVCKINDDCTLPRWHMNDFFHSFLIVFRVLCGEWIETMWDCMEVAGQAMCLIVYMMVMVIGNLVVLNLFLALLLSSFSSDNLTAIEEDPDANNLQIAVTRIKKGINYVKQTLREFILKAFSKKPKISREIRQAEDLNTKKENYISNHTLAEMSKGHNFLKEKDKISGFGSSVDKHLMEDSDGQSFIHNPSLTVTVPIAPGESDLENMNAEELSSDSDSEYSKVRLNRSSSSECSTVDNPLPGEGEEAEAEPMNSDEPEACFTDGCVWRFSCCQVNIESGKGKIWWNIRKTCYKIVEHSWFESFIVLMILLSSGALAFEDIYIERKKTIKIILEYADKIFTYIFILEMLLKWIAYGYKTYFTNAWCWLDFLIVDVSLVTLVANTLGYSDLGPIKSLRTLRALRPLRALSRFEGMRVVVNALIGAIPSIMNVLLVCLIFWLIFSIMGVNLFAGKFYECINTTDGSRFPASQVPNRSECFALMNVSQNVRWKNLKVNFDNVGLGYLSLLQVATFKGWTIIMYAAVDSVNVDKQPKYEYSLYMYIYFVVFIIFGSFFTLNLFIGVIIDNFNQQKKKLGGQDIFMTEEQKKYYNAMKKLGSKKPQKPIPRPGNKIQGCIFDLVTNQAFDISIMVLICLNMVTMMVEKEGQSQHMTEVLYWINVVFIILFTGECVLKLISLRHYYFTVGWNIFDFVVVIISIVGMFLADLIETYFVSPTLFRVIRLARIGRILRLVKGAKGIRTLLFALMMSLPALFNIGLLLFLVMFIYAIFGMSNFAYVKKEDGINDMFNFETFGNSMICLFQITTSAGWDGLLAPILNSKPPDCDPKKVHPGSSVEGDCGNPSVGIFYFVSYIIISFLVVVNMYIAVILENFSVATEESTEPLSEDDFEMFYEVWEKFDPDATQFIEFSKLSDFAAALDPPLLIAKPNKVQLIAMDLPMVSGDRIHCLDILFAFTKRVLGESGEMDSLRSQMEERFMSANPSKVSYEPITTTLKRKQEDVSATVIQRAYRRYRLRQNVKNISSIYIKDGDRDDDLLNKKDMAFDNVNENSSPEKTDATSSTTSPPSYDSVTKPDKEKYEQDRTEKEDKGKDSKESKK

The term IC50 denotes the concentration at which inhibition is half-maximal. Regarding `CC(C)Oc1ccc(C(=O)N2CCC3(CC2)N[C@@H](C)Cn2c(C(F)(F)F)ccc23)cc1F` [Compound 108], the IC50 was 2 to 5 µM. As to `Cc1cccc(C(=O)N2CCC3(CC2)c2ccc(C(F)(F)F)n2CCN3C)c1` [Compound 109], the 50% inhibitory concentration (IC50) is above 5 µM. The value for `COc1cc(C(=O)N2CCC3(CC2)N[C@H]2CCCC[C@H]2n2cccc23)ccc1C(C)(C)C` [Compound 110] was at most 2 µM; that for `CC(C)Oc1ccc(C(=O)N2CCC3(CC2)c2ccc(S(C)(=O)=O)n2CCN3C)cc1Cl` [Compound 111] was above 5 µM; that for `CN1CCn2c(C(F)(F)F)cc(F)c2C12CCN(C(=O)c1ccc(C3(O)CCC3)c(F)c1)CC2` [Compound 112] was at most 2 µM. For `COc1cc(C(=O)N2CCC3(CC2)c2c(F)cc(C(F)(F)F)n2CCN3C)ccc1OC(F)F` [Compound 113], the half-maximal inhibitory concentration (IC50) is at most 2 µM. With `COc1cc(C(=O)N2CCC3(CC2)c2ccc(C(=O)C(F)(F)F)n2C(C)CN3C)ccc1OCCOC(F)(F)F` (stereo not drawn) [Compound 114] the figure was at most 2 µM; with `CCCCOc1cc(C(=O)N2CCC3(CC2)c2ccc(C(=O)C(F)(F)F)n2CCN3C)ccc1OC` [Compound 115], at most 2 µM.

With `CN1CCn2c(C(F)(F)F)ccc2C12CCN(C(=O)c1cccnc1N1CCC(O)C1)CC2` (stereo not drawn) [Compound 116], the half-maximal inhibitory concentration (IC50) is above 5 µM. Consider `Cc1cc(C(=O)N2CCC3(CC2)c2ccc(C(=O)C(F)(F)F)n2CCN3C)ccc1OC(C)C` [Compound 117], for which the IC50 was at most 2 µM. With `COc1cc(C(=O)N2CCC3(CC2)c2c(F)cc(C(F)(F)F)n2CCN3C)ccc1OC(C)C` [Compound 118] the figure was at most 2 µM; with `CNC(=O)N1CCn2c(C(F)(F)F)ccc2C12CCN(C(=O)c1ccc(OC(C)C)c(OC)c1)CC2` [Compound 119], at most 2 µM; with `Cc1cc(C(=O)N2CCC3(CC2)c2c(C#N)cc(C(F)(F)F)n2CCN3C)ccc1C(C)(C)O` [Compound 120], 2 to 5 µM.

Take `COc1ccc(C(=O)N2CCC3(CC2)c2ccc(C(=O)C(F)(F)F)n2CCN3C)cc1F` [Compound 121]: the IC50 is above 5 µM. Turning to `CC(=O)c1ccc2n1CCN(C)C21CCN(C(=O)c2ccc(OC(C)C)c(C)c2)CC1` [Compound 122], the IC50 is at most 2 µM. With `CN1CCn2c(C(F)(F)F)ccc2C12CCN(C(=O)c1ccc(S(=O)(=O)N3CCCC3)cc1)CC2` [Compound 123] the figure was at most 2 µM; with `CC(C)Oc1ccc(C(=O)N2CCC3(CC2)c2ccc(C(=O)C4CC4)n2CCN3C)c(F)c1` [Compound 124], at most 2 µM; with `CC(=O)c1ccc2n1CCN(C)C21CCN(C(=O)c2ccc(OC(C)C)cc2F)CC1` [Compound 125], 2 to 5 µM. As for `COc1cc(C(=O)N2CCC3(CC2)c2ccc(C(=O)C(F)(F)F)n2C(C)(C)CN3C)ccc1OC(C)C` [Compound 126], the 50% inhibitory concentration (IC50) fell in the range of 2 to 5 µM. Regarding `CCCOc1ccc(C(=O)N2CCC3(CC2)c2ccc(C(=O)C(F)(F)F)n2CCN3C)cc1` [Compound 127], the 50% inhibitory concentration (IC50) was at most 2 µM. The value for `Cc1cc(C(=O)N2CCC3(CC2)NCC(C)(C)n2c(C(F)(F)F)ccc23)ccc1C(C)(C)O` [Compound 128] was at most 2 µM; that for `COc1ccc(C(=O)N2CCC3(CC2)NC(C)(C)Cn2c(C(=O)C(F)(F)F)ccc23)cc1Cl` [Compound 129] was at most 2 µM. As to `COc1ccc(C(=O)N2CCC3(CC2)c2ccc(C(=O)C(F)(F)F)n2CCN3C)cc1-c1ccccc1` [Compound 130], the concentration for half-maximal inhibition (IC50) fell in the range of 2 to 5 µM. The value for `Cc1cc(C(=O)N2CCC3(CC2)NC(C)(C)Cn2c(C(=O)C(F)(F)F)ccc23)ccc1OC(C)C` [Compound 131] was at most 2 µM; that for `COc1ccc(C(=O)N2CCC3(CC2)c2ccc(C(=O)C4CC4)n2CCN3C)cc1C(F)(F)F` [Compound 132] was at most 2 µM. With `COc1cc(C(=O)N2CCC3(CC2)NCCn2c(C(F)(F)F)ccc23)ccc1C(C)(C)CO` [Compound 133] the figure was at most 2 µM.

With `CC(C)Oc1ccc(C(=O)N2CCC3(CC2)c2c(F)cc(C(F)(F)F)n2CCN3C)cc1C#N` [Compound 134], the IC50 is at most 2 µM.

With `CC(C)Oc1ccc(C(=O)N2CCC3(CC2)NCCn2c(C(F)(F)F)ccc23)cc1Cl` [Compound 135], the IC50 was at most 2 µM. Take `CN1CCn2c(C(=O)C(F)(F)F)ccc2C12CCN(C(=O)c1ccc(C(CO)OCC(F)(F)F)cc1)CC2` (stereo not drawn) [Compound 136]: the IC50 was at most 2 µM. Turning to `COc1cc(C(=O)N2CCC3(CC2)c2ccc(C(=O)C(C)(C)C)n2CCN3C)ccc1OC(C)C` [Compound 137], the half-maximal inhibitory concentration (IC50) is at most 2 µM.

For the compound `Cc1cc(C(=O)N2CCC3(CC2)c2ccc(C(F)(F)F)n2CCN3C(=O)N(C)C)ccc1OC(C)C` [Compound 138], the 50% inhibitory concentration (IC50) was at most 2 µM. With `CC(=O)c1cc2n(c1)CC(C)(C)NC21CCN(C(=O)c2ccc(OC(C)C)c(C(F)(F)F)c2)CC1` [Compound 139] the figure was above 5 µM. The value for `Cc1cc(C(=O)N2CCC3(CC2)c2ccc(C(=O)C(C)C)n2CCN3C)ccc1O` [Compound 140] was at most 2 µM; that for `CC[C@H](C)Oc1ccc(C(=O)N2CCC3(CC2)c2c(F)cc(C(F)(F)F)n2CCN3C)cc1OC` [Compound 141] was at most 2 µM. The value for `CCCOc1cc(C(=O)N2CCC3(CC2)c2ccc(C(=O)C(F)(F)F)n2CCN3C)ccc1OC` [Compound 142] was at most 2 µM. Consider `CC(C)CCOc1ccc(C(=O)N2CCC3(CC2)c2ccc(C(=O)C(F)(F)F)n2CCN3C)cc1` [Compound 143], for which the IC50 was at most 2 µM.

Take `COc1cc(C(=O)N2CCC3(CC2)c2ccc(C(=O)C(C)C)n2CCN3C)ccc1OC(C)C` [Compound 144]: the IC50 is at most 2 µM. The value for `O=C(c1ccc(S(=O)(=O)NC2CC2)cc1)N1CCC2(CC1)c1ccc(C(F)(F)F)n1CCN2C1CCC1` [Compound 145] was above 5 µM; that for `CCCCOc1ccc(C(=O)N2CCC3(CC2)c2ccc(C(=O)C(F)(F)F)n2CCN3C)cc1OC` [Compound 146] was at most 2 µM. Turning to `CN1CCn2c(Cl)ccc2C12CCN(C(=O)c1ccc(OCC3CC3)cc1)CC2` [Compound 147], the half-maximal inhibitory concentration (IC50) was 2 to 5 µM. The value for `Cc1cc(C(=O)N2CCC3(CC2)c2ccc(C(=O)C(F)(F)F)n2CCN3C)ccc1OCCCO` [Compound 148] was at most 2 µM; that for `COc1cc(C(=O)N2CCC3(CC2)c2ccc(C(F)(F)F)n2CC(C)N3C)ccc1OC(C)C` (stereo not drawn) [Compound 149] was at most 2 µM. Turning to `CC(C)C(O)c1ccc(C(=O)N2CCC3(CC2)c2ccc(C(F)(F)F)n2CCN3C)cc1` (stereo not drawn) [Compound 150], the half-inhibitory concentration (IC50) was at most 2 µM. In the case of `COc1cc(C(=O)N2CCC3(CC2)c2ccc(C(F)(F)F)n2CCN3C)ccc1C(C)(C)CO` [Compound 151], the IC50 was at most 2 µM. For the compound `CC(C)Oc1ccc(C(=O)N2CCC3(CC2)c2ccc(C(F)(F)F)n2C[C@H](C)N3C)c(F)c1` [Compound 152], the IC50 was at most 2 µM. With `Cc1cc(S(=O)(=O)C(C)C)ccc1C(=O)N1CCC2(CC1)c1ccc(C(=O)C(F)(F)F)n1CCN2C` [Compound 153] the figure was above 5 µM.

Consider `CC(C)c1ccc(C(=O)N2CCC3(CC2)c2ccc(C(=O)C(F)(F)F)n2CCN3C)cc1S(C)(=O)=O` [Compound 154], for which the 50% inhibitory concentration (IC50) lay in the range of 2 to 5 µM. Consider `CN1CCn2c(C(F)(F)F)ccc2C12CCN(C(=O)c1ccc(Oc3ccccc3)cc1)CC2` [Compound 155], for which the half-maximal inhibitory concentration (IC50) was above 5 µM.
